From patent US12501898B2, “Synergistic pesticidal compositions and methods for delivery of active ingredients” (0903608 B.C. Ltd., priority 2017, dated 2025)
Converted amounts (≈) assume the structure as drawn. “And” between values parts separate entries of the source, which are not always exact repeats. Equal entries are not always repeated.

Legend:
Sclerotinia sclerotiorum = experiment: Synergistic Growth Inhibition Assay (MIC / FIC index) against Sclerotinia sclerotiorum; assay type: cell-based; settings: for MIC (B): individual compound alone, incubation 7 days
Experimental: (§1) In some embodiments, the synergistic action between the pesticidal active ingredient, and the C6-C10 unsaturated aliphatic acid components of the pesticidal compositions according to embodiments of the present disclosure was tested using a Synergistic Growth Inhibition Assay, which is derived from and related to a checkerboard assay as is known in the art for testing of combinations of antimicrobial agents. In the Synergistic Growth Inhibition Assay used in accordance with some embodiments of the present disclosure, multiple dilutions of combinations of pesticidal active ingredient and C6-C10 (or alternatively C11 or C12) unsaturated aliphatic acid agents are tested in individual cells for inhibitory activity against a target pest or pathogenic organism. In one such embodiment, the combinations of pesticidal active ingredient and C6-C10 unsaturated aliphatic acid agents may preferably be tested in decreasing concentrations. In a further such embodiment, the combinations of pesticidal active ingredient and C6-C10 (or alternatively C11 or C12) unsaturated aliphatic acid agents may be tested in increasing concentrations. These multiple combinations of the pesticidal active ingredient and C6-C10 (or alternatively C11 or C12) unsaturated aliphatic acid agents may be prepared in 96-well microtiter plates. In one such embodiment, the Synergistic Growth Inhibition Assay then comprises rows which each contain progressively decreasing concentrations of the pesticidal active ingredient and C6-C10 (or alternatively C11 or C12) unsaturated aliphatic acid agents to test for the MIC of the agents in combination at which growth of the target pest or pathogen is inhibited. Thus, each well of the microtiter plate is a unique combination of the two agents, at which inhibitory efficacy of the combination against the target pest or pathogen can be determined.
(§2) In one embodiment according to the present disclosure, for each row of microtiter cells in the Synergistic Growth Inhibition Assay, the FIC index is calculated from the lowest concentration of the pesticidal active ingredient and C6-C10 unsaturated aliphatic acid agents necessary to inhibit growth of a target pest or pathogen. The FIC of each component is derived by dividing the concentration of the agent present in that well of the microtiter plate by the minimal inhibitory concentration (MIC) needed of that agent alone to inhibit growth of the target pest or pathogen. The FIC index is then the sum of these values for both agents in that well of the microtiter plate. […] Fractional inhibitory concentration indices may then used as measure of synergy. […] When the FIC index is equal to 1, the combination is additive.
(§3) In some embodiments of the present disclosure, the exemplary Synergistic Growth Inhibition Assay was conducted starting with an initial composition comprising a pesticidal active ingredient agent at its individual MIC and a C6-C10 (or alternatively C11 or C12) unsaturated aliphatic acid agent at its individual MIC in the first well of a row on a 96 well microtiter plate. Then, serial dilutions of these initial compositions in successive wells in the row of the microtiter plate were used to assay the pesticidal composition under the same conditions to determine the concentration of the composition combining the two agents corresponding to the microtiter well in which growth inhibition of the target pest or organism ceases.
A culture of the representative fungal pathogen, namely Fusarium oxysporum or Botrytis cinerea, for example, is grown to exponential phase in potato dextrose broth (PDB).

[1] = Solubility / effective solubilized concentration in 10% DMSO/90% PDB by HPLC
Experimental: This solution was diluted 10-fold in potato dextrose broth (PDB) to give a concentration of 0.05 mg/mL in 10% DMSO/90% PDB.
This solution was diluted 10-fold in potato dextrose broth (PDB) to give a concentration of 0.1 mg/mL in 10% DMSO/90% PDB.

Fusarium oxysporum = experiment: Synergistic Growth Inhibition Assay (MIC / FIC index, resazurin) against Fusarium oxysporum; assay type: cell-based; settings: for MIC (B): Compound B (unsaturated aliphatic acid) alone, Fusarium oxysporum
Experimental: as §1, §2, §3
In some embodiments, Fusarium oxysporum was used as a representative pest organism or pathogen to determine synergy in pesticidal compositions comprising a pesticidal active ingredient agent and a C6-C10 (or alternatively C11 or C12) unsaturated aliphatic acid agent. Resazurin dye (also known as Alamar blue dye) was used as an indicator to determine the presence of growth or inhibition of growth of Fusarium oxysporum in the wells of the 96 well microtiter plates used in the exemplary Synergistic Growth Inhibition Assay.

Trichoplusia ni [2] = experiment: In-vitro insecticidal efficacy on treated modified McMorran artificial diet (Colby synergy); assay type: in vivo, Trichoplusia ni (cabbage looper); settings: Pylon […]
Experimental: A stock solution was prepared for each of trans-2-hexenoic acid and trans-3-hexenoic acid (both available from Sigma-Aldrich, St. Louis, MO, USA), by dissolving each exemplary unsaturated aliphatic acid in 100% dimethylsulfoxide (DMSO) at a concentration of 20 mg/mL (20,000 ppm). A stock solution for the potassium salt of (2E,4E)-2,4-hexadienoic acid was prepared by dissolving the salt in water to form a 20 mg/mL (20,000 ppm) solution.
An artificial diet suitable for Trichoplusia ni (cabbage looper caterpillar) was prepared according to the modified McMorran artificial diet recipe known in the entomology field (containing agar, casein, potassium hydroxide, alphacel, Wesson's salt mix, sugar, toasted wheat germ, choline chloride, ascorbic acid, methyl paraben, aureomycin, linseed oil and vitamin solution).
The treated artificial diet was then used to fill each well of a 24-well treatment plate with approximately 0.5 mL of artificial diet, which was allowed to solidify at room temperature and stored overnight at approximately 4 C. […] Each experiment contained 3 replicates, and was repeated at least 3 times.
(§4) While for SF<1, antagonism is present and for SF=1, the efficacy of the compounds is merely additive.

Trichoplusia ni [3] = experiment: In-planta insecticidal efficacy on sprayed green cabbage plants (Colby synergy); assay type: in vivo, Trichoplusia ni (cabbage looper); settings: […] Pylon, 0.06 mg/mL acid (salt)
Experimental: A stock solution for the potassium salt of (2E,4E)-2,4-hexadienoic acid was prepared by dissolving the salt in water to form a 20 mg/mL (20,000 ppm) solution.
Each experiment was repeated at least 3 times.
as §4

Botrytis cinerea = experiment: Synergistic Growth Inhibition Assay (MIC / FIC index, resazurin) against Botrytis cinerea; assay type: cell-based
Experimental: as §1
as §2, with “additive. […]” for “additive.”

[4] = individual compound alone, incubation 48 hours

SMILES: CCCCCCCC/C=C/C(=O)O [Trans-2-undecenoic acid, trans-2-undecenoic acid]
- MIC (B) (Sclerotinia sclerotiorum): 78.12 µg/mL

SMILES: COC(=O)N(OC)c1ccccc1COc1ccn(-c2ccc(Cl)cc2)n1 [Pyraclostrobin, pyraclostrobin]
- solubility in 10% DMSO/90% PDB [1]: 15.4 µg/mL (≈ 39.7 µM)

SMILES: CCC/C=C/C(=O)O [Trans-2-hexenoic acid, trans-2-hexenoic acid]
- MIC of individual compound alone (MIC (A) or MIC (B)) (Fusarium oxysporum; 24 hour incubation): 312.5 µg/mL
- MIC (B) (Sclerotinia sclerotiorum): 78.12 µg/mL
- 72 hr Obs. Efficacy (Trichoplusia ni [2]; 0.05 mg/mL acid (salt)): 0%
- 90 hr Obs. Efficacy (Trichoplusia ni [2]; 0.05 mg/mL acid (salt)): 0%
- 120 hr Obs. Efficacy (Trichoplusia ni [2]; 0.05 mg/mL acid (salt)): 0%
- 72 hr Obs. Efficacy (Trichoplusia ni [2]; 0.30 mg/mL acid (salt)): 0%
- 90 hr Obs. Efficacy (Trichoplusia ni [2]; 0.30 mg/mL acid (salt)): 0%
- 120 hr Obs. Efficacy (Trichoplusia ni [2]; 0.30 mg/mL acid (salt)): 0%
- Observed Efficacy (%) (Trichoplusia ni [3]; after 48 hours): 0%
- Observed Efficacy (%) (Trichoplusia ni [3]; after 72 hours): 0%

SMILES: C/C=C/C=C/C(=O)[O-].[K+] [(2E,4E)-2,4-hexadienoic acid, potassium salt]
- MIC of individual compound alone (MIC (A) or MIC (B)) (Fusarium oxysporum; 24 hour incubation): 625 µg/mL

SMILES: CCCC/C=C/CC(=O)O [Trans-3-octenoic acid, trans-3-octenoic acid]
- MIC of individual compound alone (MIC (A) or MIC (B)) (Fusarium oxysporum; 48 hours incubation): 156.2 µg/mL

SMILES: C=CCCCCCC(=O)O [7-Octenoic acid, 7-octenoic acid]
- MIC (B) (Fusarium oxysporum; 48 hours incubation): 312.5 µg/mL

SMILES: CC/C=C/CC(=O)O [Trans-3-hexenoic acid, trans-3-hexenoic acid]
- MIC (B) (Fusarium oxysporum; 48 hours incubation): 156.2 µg/mL
- MIC of individual compound alone (MIC (A) or MIC (B)) (Fusarium oxysporum; 24 hour incubation): 312.5 µg/mL
- MIC of individual compound alone (MIC (A) or MIC (B)) (Fusarium oxysporum; 48 hours incubation): 312.5 µg/mL
- MIC (B) (Sclerotinia sclerotiorum): 156.2 µg/mL
- 72 hr Obs. Efficacy (Trichoplusia ni [2]; 0.05 mg/mL acid (salt)): 0%
- 90 hr Obs. Efficacy (Trichoplusia ni [2]; 0.05 mg/mL acid (salt)): 0%
- 120 hr Obs. Efficacy (Trichoplusia ni [2]; 0.05 mg/mL acid (salt)): 0%
- 72 hr Obs. Efficacy (Trichoplusia ni [2]; 0.30 mg/mL acid (salt)): 4%
- 90 hr Obs. Efficacy (Trichoplusia ni [2]; 0.30 mg/mL acid (salt)): 4%
- 120 hr Obs. Efficacy (Trichoplusia ni [2]; 0.30 mg/mL acid (salt)): 0%

SMILES: C/C=C/C=C/C(=O)O [(2E,4E)-2,4-hexadienoic acid]
- MIC of individual compound alone (MIC (A) or MIC (B)) (Fusarium oxysporum; 24 hour incubation): 125 µg/mL

SMILES: C=CCCCCCCCC(=O)O [9-Decenoic acid, 9-decenoic acid]
- MIC of individual compound alone (MIC (A) or MIC (B)) (Fusarium oxysporum; 24 hour incubation): 71.72 µg/mL
- MIC of individual compound alone (MIC (A) or MIC (B)) (Fusarium oxysporum; 48 hours incubation): 312.5 µg/mL
- MIC (B) (Botrytis cinerea; [4]): 78.12 µg/mL
- MIC (B) (Sclerotinia sclerotiorum): 39.06 µg/mL and 78.12 µg/mL

SMILES: CCCCCCC=CCC(=O)O [3-Decenoic acid, 3-decenoic acid]
- MIC of individual compound alone (MIC (A) or MIC (B)) (Fusarium oxysporum; 24 hour incubation): 73.36 µg/mL
- MIC of individual compound alone (MIC (A) or MIC (B)) (Fusarium oxysporum; 48 hours incubation): 312.5 µg/mL and 78.12 µg/mL
- MIC (B) (Botrytis cinerea; [4]): 39.06 µg/mL and 78.12 µg/mL
- MIC (B) (Sclerotinia sclerotiorum): 39.06 µg/mL and 78.12 µg/mL

SMILES: C/C=C(/C)C(=O)O[C@H]1C[C@@H](OC(C)=O)[C@@]2(C)CO[C@H]3[C@H]4O[C@@H]5C[C@@H](c6ccoc6)C(C)=C5[C@@]4(C)[C@H](CC(=O)OC)[C@]1(C)[C@@H]32 [Salannin]
- MIC (Botrytis cinerea; Botrytis cinerea, 48 h, individual compound alone, incubation 48 hours): 50 µg/mL

SMILES: CCCCCC=CCC(=O)O [3-Nonenoic acid, 3-nonenoic acid]
- MIC (B) (Sclerotinia sclerotiorum): 39.06 µg/mL and 78.12 µg/mL and 156.2 µg/mL

SMILES: CC=CCCC(=O)O [4-Hexenoic acid, 4-hexenoic acid]
- MIC (Sclerotinia sclerotiorum; Sclerotinia sclerotiorum, […], Compound B (unsaturated aliphatic acid) alone, 7 days incubation): 156 µg/mL

SMILES: CCCCC=CCC(=O)O [3-Octenoic acid, 3-octenoic acid]
- MIC of individual compound alone (MIC (A) or MIC (B)) (Botrytis cinerea; compound alone, 24 hour incubation): 146.6 µg/mL

SMILES: CO/C=C(/C(=O)OC)c1ccccc1Oc1cc(Oc2ccccc2C#N)ncn1 [Azoxystrobin, reference compound]
- MIC of individual compound alone (MIC (A) or MIC (B)) (Fusarium oxysporum; 48 hours incubation): 150 µg/mL
- MIC of individual compound alone (MIC (A) or MIC (B)) (Sclerotinia sclerotiorum; compound alone, 7 days incubation): 150 µg/mL

SMILES: CCCC=CCC(=O)O [3-Heptenoic acid, 3-heptenoic acid]
- MIC of individual compound alone (MIC (A) or MIC (B)) (Fusarium oxysporum; 48 hours incubation): 156.2 µg/mL
- MIC (B) (Sclerotinia sclerotiorum): 78.12 µg/mL

SMILES: N#Cc1c[nH]cc1-c1cccc2c1OC(F)(F)O2 [Fludioxonil, fludioxonil, reference compound]
- MIC of individual compound alone (MIC (A) or MIC (B)) (Fusarium oxysporum; 24 hour incubation): 0.24063 µg/mL

SMILES: C=CCCCC(=O)O [5-Hexenoic acid, 5-hexenoic acid]
- MIC (B) (Fusarium oxysporum; 48 hours incubation): 156.2 µg/mL
- MIC (B) (Sclerotinia sclerotiorum): 156.2 µg/mL

SMILES: CCCCC/C=C/C(=O)O [Trans-2-octenoic acid, trans-2-octenoic acid]
- MIC (B) (Fusarium oxysporum; 48 hours incubation): 156.2 µg/mL

SMILES: CCCCCCC/C=C/C(=O)O [Trans-2-decenoic acid, trans-2-decenoic acid]
- MIC (B) (Fusarium oxysporum; 48 hours incubation): 156.2 µg/mL
- MIC (B) (Fusarium oxysporum; 48 hours incubation, listed as Trans-2-Decenoic acid): 78.12 µg/mL
- MIC of individual compound alone (MIC (A) or MIC (B)) (Fusarium oxysporum; 24 hour incubation): 36.25 µg/mL
